# Measurements reported in patent US20020159969A1, “Small peptide-based therapeutics for reversing cancer-associated MUC-1 mucin-induced immunosuppression” (priority 1997, published 2002).
# Legend:
# human T-cell cultures = assay: Mixed lymphocyte reaction / T-cell proliferation (3H-thymidine incorporation) with affinity purified MUC-1 mucin; assay type: cell-based; details: purified MUC-1 mucin added to human T-cell cultures; FIG. 1
# Method: The mixed lymphocyte reaction is conducted by mixing the lymphocytes of HLA disparate individuals in in vitro tissue cultures. The “responder population” in this experiment is purified T-cells from one population, while the “stimulator” population in this experiment is the peripheral blood lymphocytes obtained from an HLA mismatched individual donor. The two cell populations were mixed and cultured either in the presence or absence of various doses of B27.29 affinity purified MUC-1 mucin that was purified from a pleural effusion fluid. The results of this experiment are depicted in FIG. 1.
# In the experiment depicted in FIG. 1, 10^6 T-cells were cultured in AIM V medium in presence of 10^6 allo-PBLs (mitomycin C treated) with or without the indicated concentration of affinity purified MUC1 or OSM for 6-7 days. At this time the T-cells were harvested and plated at 10^5/well in 96 well flat bottom plates and the polyclonal stimuli allo-PBLs (10^5/well), or anti-CD3 (1 μg/ml) or PHA (0.2 μg/ml), in presence or absence of MUC1 or OSM for 4 days. Each group was set up in a replicate of five wells. ^3H-thymidine (1 μCi/well) was added and the culture plates were further incubated for 18-24 h before harvesting. ^3H-thymidine incorporation into the DNA of proliferating T-cells was measured by liquid scintillation counting. […]
# T-cells = assay: Relief of 100 mer MUC1 peptide-induced suppression/anergy of T-cell proliferation (allo-PBLs, 3H-thymidine incorporation); assay type: cell-based, human; details: 100 mer MUC1 peptide 25 μg/ml; 16 mer at varying doses; FIG. 3
# Method: In the experiment of FIG. 3, purified T-cells (10^6/ml) were cultured in AIM V medium with allo-PBLs in the presence (100 mer MUC1 peptide group; right panel) or absence (media group; left panel) of 100 mer MUC1 synthetic peptide (25 μg/ml) for 6-7 days. At this time, the T-cells were harvested and plated in 96 well flat bottom plates at 10^5/well with allo-PBLs (10^5/well) in the presence or absence of 100 mer MUC1 peptide (25 μg/ml), and the 16 mer MUC1 peptide (less than one tandem repeat) at varying doses. The wells were pulsed with ^3H-thymidine (1 μCi/well) on the fourth day of culture followed by harvesting on the fifth day. ^3H-Thymidine incorporation into the DNA of proliferating T-cells was measured by liquid scintillation counter. Data are shown as mean CPM±standard deviations. Each group was set up in replicates of 3 wells.
# T cells = assay: T cell proliferation assay with allo PBLs (3H-thymidine incorporation) with synthetic MUC-1 tandem repeat peptides; assay type: cell-based, human; details: peptide 10 μg/ml, 6-7 days then 5 days, FIG. 2
# Method: Enriched T cell populations were purified from buffy coats obtained from normal red cross donors using nylon wool columns by previously reported procedures. […] For the allo MLR, mitomycin C treated allogeneic PBLs were co-cultured with purified T cells in the presence or absence of affinity purified MUC-1 mucin or control OSM. In most of the experiments, the T cells were cultured 6-7 days in AIM V medium in the absence or presence of MUC-1, MUC-1 derivative or OSM at the indicated concentration. After this time, the T cells were harvested, washed and cultured as indicated.
# For the experiment depicted in FIG. 2, purified T cells (10^6/ml) were cultured in AIM V medium with allo PBLs in the absence or presence of MUC-1, MUC-1 derivative or OSM 10 μg/ml for 6-7 days. T cells were harvested and plated in 96 well flat bottom plates at 10^5/well with allo PBLs (10^5/well), in the presence or absence of affinity purified MUC-1, MUC-1 derivative or OSM. Control cultures were treated with either 50 U/ml IL-2 or 1 μg/ml anti-CD28 Mab. After 4 days of culture, ^3H-thymidine (1 μCi/well) was added. The cells were harvested on the fifth day and ^3H-thymidine incorporation was measured by liquid scintillation.
Substance,T-cell proliferation against allo-antigenic (or mitogenic) stimulus in vitro (human T-cell cultures),reversal of suppression/anergy induced by a MUC-1 100-mer peptide (T-cells),level of T cell proliferation relative to control (T cells)
purified human MUC-1 mucin: B27.29 affinity purified MUC-1 mucin glycoprotein from cancer patient pleural effusion/ascites fluid,strongly inhibits,,
GVTSAPDTRPAPGSTA [BP16],,reverses,not observed
